# According to patent publication US10533015B1, “Opioid receptor antagonist prodrugs” (Nirsum Laboratories, Inc., priority 2019, dated 2020):
# Where two headings read alike, the source gives them in different places.
# How the values were obtained:
# [1] = Plasma stability assay, rat plasma; type: in vitro ADME; conditions: 10 μM, 37° C.
# Method: Plasma stability determination of the test compounds in rat, dog, cynomolgus monkey and human plasma is performed using HPLC-MS. For rat, incubations are carried out in 96-well polypropylene plates in 5 aliquots of 70 μL each (one for each time point). […] Five time points are analyzed (0, 15, 120, 480 and 1440 min). For dog, monkey and human, test compounds (2 μM, final solvent concentration 1%) were also incubated at 37° C. and analyzed at five time points (0, 10, 30, 60 and 120 min). All incubations are performed in duplicates. The samples are analyzed by HPLC-MS. The percentage of parent compound remaining after incubation in plasma is determined.
# [2] = Polymorph screening of solid state drug substances; conditions: for Dry method and appearance: after stirring 50 °C 72 hours, dried solid; for XRPD results (Dried): dried solid after 50 °C 72 hours; for Visual observation 50° C. / Visual observation RT: target conc. 100 mg/ml
# [3] = heating temp. 60 °C, obs. temp. 25 °C
# [4] = heating temp. 40 °C, obs. temp. 40 °C
# [5] = heating temp. 60 °C, obs. temp. 40 °C
compound,measurement,setting,value
"CCCCCCCCOC(=O)Oc1ccc2c3c1O[C@H]1C(=O)CC[C@@]4(O)C(C2)N(CC2CC2)CC[C@]314 [Compound 23, (4aS,7aR,12bS)-3-(cyclopropylmethyl)-4a-hydroxy-7-oxo-2,3,4,4a,5,6,7,7a-octahydro-1H-4,12-methanobenzofuro[3,2-e]isoquinolin-9-yl octyl carbonate]",% remaining at time point,[1]; 0 min,100%
same,% remaining at time point,[1]; 15 min,0%
same,% remaining at time point,[1]; 120 min,0%
same,% remaining at time point,[1]; 480 min,0%
same,% remaining at time point,[1]; 1440 min,0%
"C=C1CC[C@@]2(O)C3Cc4ccc(OC(=O)OCCCCCCCCCCCCC)c5c4[C@@]2(CCN3CC2CC2)[C@H]1O5 [Compound 30, (4aS,7aS,12bS)-3-(cyclopropylmethyl)-4a-hydroxy-7-methylene-2,3,4,4a,5,6,7,7a-octahydro-1H-4,12-methanobenzofuro[3,2-e]isoquinolin-9-yl tridecyl carbonate]",% remaining at time point,[1]; 0 min,100%
same,% remaining at time point,[1]; 15 min,65.7%
same,% remaining at time point,[1]; 120 min,40.3%
same,% remaining at time point,[1]; 480 min,30.5%
same,% remaining at time point,[1]; 1440 min,22.2%
same,Approximate Solubility (mg/mL) in Excipient: Cottonseed oil,[3],252.5 to 404.06 mg/mL
same,Approximate Solubility (mg/mL) in Excipient: Sesame oil,[3],252.55 to 398.6 mg/mL
same,Equilibrium solubility (mg/mL) Water,[4],<0.001 mg/mL
"C=C1CC[C@@]2(O)C3Cc4ccc(OC(=O)CCCCCCC/C=C\CCCCCCCC)c5c4[C@@]2(CCN3CC2CC2)[C@H]1O5 [Compound 36, (4aS,7aS,12bS)-3-(cyclopropylmethyl)-4a-hydroxy-7-methylene-2,3,4,4a,5,6,7,7a-octahydro-1H-4,12-methanobenzofuro[3,2-e]isoquinolin-9-yl oleate]",% remaining at time point,[1]; 0 min,100%
same,% remaining at time point,[1]; 15 min,74.4%
same,% remaining at time point,[1]; 120 min,66.3%
same,% remaining at time point,[1]; 480 min,39.8%
same,% remaining at time point,[1]; 1440 min,19.1%
same,Approximate Solubility (mg/mL) in Excipient: Castor oil,"Castor oil, heating temp. 40 °C, obs. temp. 40 °C",>217 mg/mL
same,Approximate Solubility (mg/mL) in Excipient: Cottonseed oil,[4],>418.7 mg/mL
same,Approximate Solubility (mg/mL) in Excipient: Cottonseed oil,[3],>407 mg/mL
same,Approximate Solubility (mg/mL) in Excipient: Ethanol,[4],20 to 30 mg/mL
same,Approximate Solubility (mg/mL) in Excipient: Sesame oil,[4],>411.6 mg/mL
same,Approximate Solubility (mg/mL) in Excipient: Sesame oil,[3],>408 mg/mL
"C=C1CC[C@@]2(O)C3Cc4ccc(OC(=O)OCCCCCCCCCC)c5c4[C@@]2(CCN3CC2CC2)[C@H]1O5 [Compound 18, (4aS,7aS,12bS)-3-(cyclopropylmethyl)-4a-hydroxy-7-methylene-2,3,4,4a,5,6,7,7a-octahydro-1H-4,12-methanobenzofuro[3,2-e]isoquinolin-9-yl decyl carbonate]",% remaining at time point,[1]; 0 min,100%
same,% remaining at time point,[1]; 15 min,0.6%
same,% remaining at time point,[1]; 120 min,0.3%
same,% remaining at time point,[1]; 480 min,0.1%
same,% remaining at time point,[1]; 1440 min,0%
same,Approximate Solubility (mg/mL) in Excipient: Cottonseed oil,[4],>403 mg/mL
same,Approximate Solubility (mg/mL) in Excipient: Cottonseed oil,[3],>400 mg/mL
same,Approximate Solubility (mg/mL) in Excipient: Ethanol,[4],>209 mg/mL
same,Approximate Solubility (mg/mL) in Excipient: Sesame oil,[4],>403 mg/mL
same,Approximate Solubility (mg/mL) in Excipient: Sesame oil,[3],>402 mg/mL
same,Equilibrium solubility (mg/mL) Water,[4],<0.0002 mg/mL
"C=C1CC[C@@]2(O)C3Cc4ccc(OC(=O)CCCCCCCCCCCCCCCCCCC)c5c4[C@@]2(CCN3CC2CC2)[C@H]1O5 [Compound 16, (4aS,7aS,12bS)-3-(cyclopropylmethyl)-4a-hydroxy-7-methylene-2,3,4,4a,5,6,7,7a-octahydro-1H-4,12-methanobenzofuro[3,2-e]isoquinolin-9-yl icosanoate]",Approximate Solubility (mg/mL) in Excipient: Cottonseed oil,[4],57 to 67 mg/mL
same,Approximate Solubility (mg/mL) in Excipient: Cottonseed oil,[5],201 to 403 mg/mL
same,Approximate Solubility (mg/mL) in Excipient: Ethanol,[4],<25 mg/mL
same,Approximate Solubility (mg/mL) in Excipient: Sesame oil,[4],68 to 81 mg/mL
same,Approximate Solubility (mg/mL) in Excipient: Sesame oil,[5],202 to 404 mg/mL
same,Dry method and appearance,[2]; Acetone,Evaporation/white powder
same,XRPD results (Dried),[2]; Acetone,Pattern A
same,Visual observation 50° C.,[2]; Acetone,Clear
same,Visual observation RT,[2]; Acetone,Slurry
same,Dry method and appearance,[2]; EtOAc,Evaporation/white powder
same,XRPD results (Dried),[2]; EtOAc,Pattern A
same,Visual observation 50° C.,[2]; EtOAc,Clear
same,Visual observation RT,[2]; EtOAc,Slurry
same,Dry method and appearance,[2]; Heptane,Centrifugation/white powder
same,XRPD results (Dried),[2]; Heptane,Pattern A
same,Visual observation 50° C.,[2]; Heptane,Slurry
same,Visual observation RT,[2]; Heptane,Slurry
same,Dry method and appearance,[2]; Isopropanol,Centrifugation/white powder
same,XRPD results (Dried),[2]; Isopropanol,Pattern A
same,Visual observation 50° C.,[2]; Isopropanol,Slurry
same,Visual observation RT,[2]; Isopropanol,Slurry
same,Dry method and appearance,[2]; MTBE,Evaporation/white powder
same,XRPD results (Dried),[2]; MTBE,Pattern A
same,Visual observation 50° C.,[2]; MTBE,Clear
same,Visual observation RT,[2]; MTBE,Clear
Enalapril maleate salt [reference compound],% remaining at time point,[1]; 0 min,100%
same,% remaining at time point,[1]; 15 min,44%
same,% remaining at time point,[1]; 120 min,2.9%
same,% remaining at time point,[1]; 480 min,8.2%
same,% remaining at time point,[1]; 1440 min,4.8%
"C=C1CC[C@@]2(O)C3Cc4ccc(OC(=O)CCCCCCC/C=C\C/C=C\C/C=C\CC)c5c4[C@@]2(CCN3CC2CC2)[C@H]1O5 [Compound 20, (4aS,7aS,12bS)-3-(cyclopropylmethyl)-4a-hydroxy-7-methylene-2,3,4,4a,5,6,7,7a-octahydro-1H-4,12-methanobenzofuro[3,2-e]isoquinolin-9-yl (9Z,12Z,15Z)-octadeca-9,12,15-trienoate]",Approximate Solubility (mg/mL) in Excipient: Cottonseed oil,[4],>414 mg/mL
same,Approximate Solubility (mg/mL) in Excipient: Cottonseed oil,[3],68 to 82 mg/mL
same,Approximate Solubility (mg/mL) in Excipient: Ethanol,[4],157 to 197 mg/mL
same,Approximate Solubility (mg/mL) in Excipient: Sesame oil,[4],>406 mg/mL
same,Approximate Solubility (mg/mL) in Excipient: Sesame oil,[3],80 to 100 mg/mL
same,Equilibrium solubility (mg/mL) Water,[4],<0.0002 mg/mL
"C=C1CC[C@@]2(O)C3Cc4ccc(OC(=O)CCCCCCCCCCC/C=C\CCCCCCCC)c5c4[C@@]2(CCN3CC2CC2)[C@H]1O5 [Compound 13, (4aS,7aS,12bS)-3-(cyclopropylmethyl)-4a-hydroxy-7-methylene-2,3,4,4a,5,6,7,7a-octahydro-1H-4,12-methanobenzofuro[3,2-e]isoquinolin-9-yl (Z)-docos-13-enoate]",Approximate Solubility (mg/mL) in Excipient: Cottonseed oil,[4],>381 mg/mL
same,Approximate Solubility (mg/mL) in Excipient: Cottonseed oil,[3],<50 mg/mL
same,Approximate Solubility (mg/mL) in Excipient: Ethanol,[4],>214 mg/mL
same,Approximate Solubility (mg/mL) in Excipient: Sesame oil,[4],>406 mg/mL
same,Approximate Solubility (mg/mL) in Excipient: Sesame oil,[3],91 to 121 mg/mL
"C=C1CC[C@@]2(O)C3Cc4ccc(OCOC(=O)CCCCCCCCCCC)c5c4[C@@]2(CCN3CC2CC2)[C@H]1O5 [Compound 44, (((4aS,7aS,12bS)-3-(cyclopropylmethyl)-4a-hydroxy-7-methylene-2,3,4,4a,5,6,7,7a-octahydro-1H-4,12-methanobenzofuro[3,2-e]isoquinolin-9-yl)oxy)methyl dodecanoate]",Approximate Solubility (mg/mL) in Excipient: Cottonseed oil,[3],>407 mg/mL
same,Approximate Solubility (mg/mL) in Excipient: Sesame oil,[3],208 to 231 mg/mL
same,Equilibrium solubility (mg/mL) Water,[4],<0.001 mg/mL
"C=C1CC[C@@]2(O)C3Cc4ccc(OC(=O)OCCCCCCCC)c5c4[C@@]2(CCN3CC2CC2)[C@H]1O5 [Compound 17, (4aS,7aS,12bS)-3-(cyclopropylmethyl)-4a-hydroxy-7-methylene-2,3,4,4a,5,6,7,7a-octahydro-1H-4,12-methanobenzofuro[3,2-e]isoquinolin-9-yl octyl carbonate]",% remaining at time point,[1]; 0 min,100%
same,% remaining at time point,[1]; 15 min,0%
same,% remaining at time point,[1]; 120 min,0%
same,% remaining at time point,[1]; 480 min,0%
same,% remaining at time point,[1]; 1440 min,0%
"CCCCCCCCCCCOC(=O)OCOc1ccc2c3c1O[C@H]1C(=O)CC[C@@]4(O)C(C2)N(CC2CC2)CC[C@]314 [Compound 4, (((4aS,7aR,12bS)-3-(cyclopropylmethyl)-4a-hydroxy-7-oxo-2,3,4,4a,5,6,7,7a-octahydro-1H-4,12-methanobenzofuro[3,2-e]isoquinolin-9-yl)oxy)methyl undecyl carbonate]",Solubility by volumetric flask method: Cottonseed oil,"Volumetric flask method, cottonseed oil, heating temp. 60 °C, obs. temp. 25 °C",>395.3 mg/mL
same,Solubility by volumetric flask method: Sesame oil,"Volumetric flask method, sesame oil, heating temp. 60 °C, obs. temp. 25 °C",>400.4 mg/mL
same,Equilibrium solubility (mg/mL) Water,"section 'Solubility by volumetric flask method', heating temp. 40 °C, obs. temp. 40 °C",<0.001 mg/mL
